# Like-named read-outs stand apart in the source and are kept apart here.
# Tests used:
# wild oat (Avena fatua) = test: Test C postemergence; format: in vivo; settings: for pest or weed control at 125 g/ha: Avena fatua, post-emergence, 125 g ai/ha, scale 0 to 100 (0 no effect, 100 complete control), read-out: Oat, Wild plant response rating
# Method in brief: (§1)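 Greenhouse pot test: seeds treated preemergence, or plants at 2–18 cm (1- to 4-leaf stage) treated postemergence, with compound in non-phytotoxic solvent plus surfactant. Visual rating versus untreated controls after 12–14 days, scale 0 (no effect) to 100 (complete control); dash means not tested.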
# [1] = tested on: Italian ryegrass (Lolium multiflorum); test: Test C postemergence; format: in vivo; settings: for pest or weed control at 125 g/ha: Lolium multiflorum, post-emergence, 125 g ai/ha, scale 0 to 100 (0 no effect, 100 complete control), read-out: Ryegrass, Italian plant response rating
# Method in brief: as §1
# [2] = tested on: blackgrass (Alopecurus myosuroides); test: Test C postemergence; format: in vivo; settings: for pest or weed control at 125 g/ha: Alopecurus myosuroides, post-emergence, 125 g ai/ha, scale 0 to 100 (0 no effect, 100 complete control), read-out: Blackgrass plant response rating
# Method in brief: as §1
# [3] = tested on: wheat (Triticum aestivum); test: Test C postemergence; format: in vivo; settings: for plant injury at 125 g/ha: Triticum aestivum, post-emergence, 125 g ai/ha, scale 0 to 100 (0 no effect, 100 complete control), read-out: Wheat plant response rating
# Method in brief: as §1
# [4] = tested on: windgrass (Apera spica-venti); test: Test C postemergence; format: in vivo; settings: for pest or weed control at 125 g/ha: Apera spica-venti, post-emergence, 125 g ai/ha, scale 0 to 100 (0 no effect, 100 complete control), read-out: Windgrass plant response rating
# Method in brief: as §1
# [5] = tested on: canarygrass (Phalaris minor); test: Test C postemergence; format: in vivo; settings: for pest or weed control at 125 g/ha: Phalaris minor, post-emergence, 125 g ai/ha, scale 0 to 100 (0 no effect, 100 complete control), read-out: Canarygrass plant response rating
# Method in brief: as §1
# [6] = tested on: downy brome (Bromus tectorum); test: Test C postemergence; format: in vivo; settings: for pest or weed control at 125 g/ha: Bromus tectorum, post-emergence, 125 g ai/ha, scale 0 to 100 (0 no effect, 100 complete control), read-out: Bromegrass, Downy plant response rating
# Method in brief: as §1
# [7] = tested on: green foxtail (Setaria viridis); test: Test C postemergence; format: in vivo; settings: for pest or weed control at 125 g/ha: Setaria viridis, post-emergence, 125 g ai/ha, scale 0 to 100 (0 no effect, 100 complete control), read-out: Foxtail, Green plant response rating
# Method in brief: as §1
# [8] = tested on: winter barley (Hordeum vulgare); test: Test C postemergence; format: in vivo; settings: for plant injury at 62 g/ha / plant injury at 125 g/ha: Hordeum vulgare, post-emergence, scale 0 to 100 (0 no effect, 100 complete control), read-out: Barley plant response rating; for plant injury at 62 g/ha: 62 g ai/ha; for plant injury at 125 g/ha: 125 g ai/ha
# Method in brief: as §1
# [9] = tested on: crabgrass (Digitaria sanguinalis); test: Test A pre/postemergence; format: in vivo; settings: Digitaria sanguinalis, 240 h, read-out: Plant response rating, Crabgrass; for pest or weed control at 125 g/ha: 125 g ai/ha; for pest or weed control at 500 g/ha: 500 g ai/ha
# Method in brief: (§2)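 Seeds sown in loam–sand blend received a preemergence directed soil spray of test chemical in non-phytotoxic solvent with surfactant; same-formulation postemergence spray given concurrently to plants 2–10 cm tall at 1- to 2-leaf stage. Greenhouse ~ten days, then visual injury rating versus untreated controls, 0 (no effect) to 100 (complete control).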
# [10] = tested on: morningglory (Ipomoea spp.); test: Test A pre/postemergence; format: in vivo; settings: Ipomoea, 240 h, read-out: Plant response rating, Morningglory; for pest or weed control at 125 g/ha: 125 g ai/ha; for pest or weed control at 500 g/ha: 500 g ai/ha
# Method in brief: as §2
# [11] = tested on: redroot pigweed (Amaranthus retroflexus); test: Test A pre/postemergence; format: in vivo; settings: Amaranthus retroflexus, 240 h, read-out: Plant response rating, Pigweed; for pest or weed control at 125 g/ha: 125 g ai/ha; for pest or weed control at 500 g/ha: 500 g ai/ha
# Method in brief: as §2
# [12] = tested on: velvetleaf (Abutilon theophrasti); test: Test A pre/postemergence; format: in vivo; settings: Abutilon theophrasti, 240 h, read-out: Plant response rating, Velvetleaf; for pest or weed control at 125 g/ha: 125 g ai/ha; for pest or weed control at 500 g/ha: 500 g ai/ha
# Method in brief: as §2
# [13] = post-emergence, Postemergence, 0 to 100 scale (0 no effect, 100 complete control)
# [14] = pre-emergence, Preemergence, 0 to 100 scale where 0 is no effect and 100 is complete control, approximately ten days
structure (smiles),measurement,setting,value
"Nc1nc(-c2ccc(Cl)cc2)nc(C(=O)O)c1Cl [Compound 65, 6-amino-5-chloro-2-(4-chlorophenyl)-4-pyrimidinecarboxylic acid]",melting point,,158 to 160 °C
same,"Plant response rating (scale of 0 to 100), Oat, Wild",wild oat (Avena fatua); 16 g ai/ha,5
same,"Plant response rating (scale of 0 to 100), Oat, Wild",wild oat (Avena fatua); 31 g ai/ha,15
same,"Plant response rating (scale of 0 to 100), Oat, Wild",wild oat (Avena fatua); 62 g ai/ha,20
same,pest or weed control at 125 g/ha,wild oat (Avena fatua),40%
same,"Plant response rating (scale of 0 to 100), Ryegrass, Italian",[1]; 16 g ai/ha,10
same,"Plant response rating (scale of 0 to 100), Ryegrass, Italian",[1]; 31 g ai/ha,50
same,"Plant response rating (scale of 0 to 100), Ryegrass, Italian",[1]; 62 g ai/ha,55
same,pest or weed control at 125 g/ha,[1],60%
same,"Plant response rating (scale of 0 to 100), Blackgrass",[2]; 16 g ai/ha,50
same,"Plant response rating (scale of 0 to 100), Blackgrass",[2]; 31 g ai/ha,60
same,"Plant response rating (scale of 0 to 100), Blackgrass",[2]; 62 g ai/ha,65
same,pest or weed control at 125 g/ha,[2],65%
same,"Plant response rating (scale of 0 to 100), Wheat",[3]; 16 g ai/ha,40
same,"Plant response rating (scale of 0 to 100), Wheat",[3]; 31 g ai/ha,40
same,"Plant response rating (scale of 0 to 100), Wheat",[3]; 62 g ai/ha,45
same,plant injury at 125 g/ha,[3],45%
same,"Plant response rating (scale of 0 to 100), Windgrass",[4]; 16 g ai/ha,50
same,"Plant response rating (scale of 0 to 100), Windgrass",[4]; 31 g ai/ha,60
same,"Plant response rating (scale of 0 to 100), Windgrass",[4]; 62 g ai/ha,70
same,pest or weed control at 125 g/ha,[4],70%
same,"Plant response rating (scale of 0 to 100), Canarygrass",[5]; 16 g ai/ha,30
same,"Plant response rating (scale of 0 to 100), Canarygrass",[5]; 31 g ai/ha,30
same,"Plant response rating (scale of 0 to 100), Canarygrass",[5]; 62 g ai/ha,35
same,pest or weed control at 125 g/ha,[5],45%
same,"Plant response rating (scale of 0 to 100), Bromegrass, Downy",[6]; 16 g ai/ha,40
same,"Plant response rating (scale of 0 to 100), Bromegrass, Downy",[6]; 31 g ai/ha,50
same,"Plant response rating (scale of 0 to 100), Bromegrass, Downy",[6]; 62 g ai/ha,50
same,pest or weed control at 125 g/ha,[6],55%
same,"Plant response rating (scale of 0 to 100), Foxtail, Green",[7]; 16 g ai/ha,50
same,"Plant response rating (scale of 0 to 100), Foxtail, Green",[7]; 31 g ai/ha,55
same,"Plant response rating (scale of 0 to 100), Foxtail, Green",[7]; 62 g ai/ha,60
same,pest or weed control at 125 g/ha,[7],70%
same,"Plant response rating (scale of 0 to 100), Barley",[8]; 16 g ai/ha,40
same,"Plant response rating (scale of 0 to 100), Barley",[8]; 31 g ai/ha,40
same,plant injury at 62 g/ha,[8],50%
same,plant injury at 125 g/ha,[8],50%
same,pest or weed control at 125 g/ha,[9]; [13],55%
same,pest or weed control at 500 g/ha,[9]; [13],80%
same,pest or weed control at 125 g/ha,[9]; [14],60%
same,pest or weed control at 500 g/ha,[9]; [14],90%
same,pest or weed control at 125 g/ha,[10]; [13],75%
same,pest or weed control at 500 g/ha,[10]; [13],95%
same,pest or weed control at 125 g/ha,[10]; [14],25%
same,pest or weed control at 500 g/ha,[10]; [14],90%
same,pest or weed control at 125 g/ha,[11]; [13],100%
same,pest or weed control at 500 g/ha,[11]; [13],100%
same,pest or weed control at 125 g/ha,[11]; [14],100%
same,pest or weed control at 500 g/ha,[11]; [14],100%
same,pest or weed control at 125 g/ha,[12]; [13],95%
same,pest or weed control at 500 g/ha,[12]; [13],100%
same,pest or weed control at 125 g/ha,[12]; [14],55%
same,pest or weed control at 500 g/ha,[12]; [14],95%
"Nc1nc(C2CC2)nc(C(=O)OCc2ccccc2)c1Cl [Compound 78, phenylmethyl 6-amino-5-chloro-2-cyclopropyl-4-pyrimidinecarboxylate]",melting point,,126 to 128 °C
same,"Plant response rating (scale of 0 to 100), Oat, Wild",wild oat (Avena fatua); 31 g ai/ha,5
same,"Plant response rating (scale of 0 to 100), Oat, Wild",wild oat (Avena fatua); 62 g ai/ha,10
same,"Plant response rating, Oat, Wild","wild oat (Avena fatua); 250 g ai/ha, scale 0 to 100",60
same,pest or weed control at 125 g/ha,wild oat (Avena fatua),60%
same,"Plant response rating (scale of 0 to 100), Ryegrass, Italian",[1]; 31 g ai/ha,0
same,"Plant response rating (scale of 0 to 100), Ryegrass, Italian",[1]; 62 g ai/ha,10
same,"Plant response rating, Ryegrass, Italian","[1]; 250 g ai/ha, scale 0 to 100",25
same,pest or weed control at 125 g/ha,[1],20%
same,"Plant response rating (scale of 0 to 100), Blackgrass",[2]; 31 g ai/ha,0
same,"Plant response rating (scale of 0 to 100), Blackgrass",[2]; 62 g ai/ha,5
same,"Plant response rating, Blackgrass","[2]; 250 g ai/ha, scale 0 to 100",50
same,pest or weed control at 125 g/ha,[2],5%
same,"Plant response rating (scale of 0 to 100), Wheat",[3]; 31 g ai/ha,20
same,"Plant response rating (scale of 0 to 100), Wheat",[3]; 62 g ai/ha,20
same,"Plant response rating, Wheat","[3]; 250 g ai/ha, scale 0 to 100",55
same,plant injury at 125 g/ha,[3],30%
same,"Plant response rating (scale of 0 to 100), Windgrass",[4]; 31 g ai/ha,5
same,"Plant response rating (scale of 0 to 100), Windgrass",[4]; 62 g ai/ha,30
same,"Plant response rating, Windgrass","[4]; 250 g ai/ha, scale 0 to 100",40
same,pest or weed control at 125 g/ha,[4],30%
same,"Plant response rating (scale of 0 to 100), Canarygrass",[5]; 31 g ai/ha,0
same,"Plant response rating (scale of 0 to 100), Canarygrass",[5]; 62 g ai/ha,0
same,"Plant response rating, Canarygrass","[5]; 250 g ai/ha, scale 0 to 100",0
same,pest or weed control at 125 g/ha,[5],0%
same,"Plant response rating (scale of 0 to 100), Bromegrass, Downy",[6]; 31 g ai/ha,5
same,"Plant response rating (scale of 0 to 100), Bromegrass, Downy",[6]; 62 g ai/ha,10
same,"Plant response rating, Bromegrass, Downy","[6]; 250 g ai/ha, scale 0 to 100",55
same,pest or weed control at 125 g/ha,[6],15%
same,"Plant response rating (scale of 0 to 100), Foxtail, Green",[7]; 31 g ai/ha,25
same,"Plant response rating (scale of 0 to 100), Foxtail, Green",[7]; 62 g ai/ha,40
same,"Plant response rating, Foxtail, Green","[7]; 250 g ai/ha, scale 0 to 100",75
same,pest or weed control at 125 g/ha,[7],70%
same,"Plant response rating (scale of 0 to 100), Barley",[8]; 31 g ai/ha,5
same,"Plant response rating, Barley","[8]; 250 g ai/ha, scale 0 to 100",90
same,plant injury at 62 g/ha,[8],5%
same,plant injury at 125 g/ha,[8],30%
same,pest or weed control at 125 g/ha,[9]; [13],70%
same,pest or weed control at 500 g/ha,[9]; [13],80%
same,pest or weed control at 125 g/ha,[9]; [14],55%
same,pest or weed control at 500 g/ha,[9]; [14],70%
same,pest or weed control at 125 g/ha,[10]; [13],80%
same,pest or weed control at 500 g/ha,[10]; [13],90%
same,pest or weed control at 125 g/ha,[10]; [14],90%
same,pest or weed control at 500 g/ha,[10]; [14],100%
same,pest or weed control at 125 g/ha,[11]; [13],85%
same,pest or weed control at 500 g/ha,[11]; [13],95%
same,pest or weed control at 125 g/ha,[11]; [14],75%
same,pest or weed control at 500 g/ha,[11]; [14],90%
same,pest or weed control at 125 g/ha,[12]; [13],75%
same,pest or weed control at 500 g/ha,[12]; [13],90%
same,pest or weed control at 125 g/ha,[12]; [14],80%
same,pest or weed control at 500 g/ha,[12]; [14],85%

# Source: patent publication US8802597B2, “Herbicidal pyrimidines” (E I du Pont de Nemours and Company, priority 2003, dated 2014)
